Reference: ChEMBL document CHEMBL1144416, “Structural requirements for factor Xa inhibition by 3-oxybenzamides with neutral P1 substituents: combining X-ray crystallography, 3D-QSAR, and tailored scoring functions” (J Med Chem, 2005)

Biological target: Coagulation factor X (Homo sapiens, UniProt P00742)
Experiment: Binding affinity towards human Coagulation factor X

Sequence of Coagulation factor X (P00742 41-179 limits assumed): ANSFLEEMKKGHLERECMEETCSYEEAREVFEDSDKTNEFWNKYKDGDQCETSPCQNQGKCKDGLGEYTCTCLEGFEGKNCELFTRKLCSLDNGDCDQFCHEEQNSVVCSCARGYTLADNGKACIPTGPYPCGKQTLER
Sequence of Coagulation factor X (P00742 235-488 limits assumed): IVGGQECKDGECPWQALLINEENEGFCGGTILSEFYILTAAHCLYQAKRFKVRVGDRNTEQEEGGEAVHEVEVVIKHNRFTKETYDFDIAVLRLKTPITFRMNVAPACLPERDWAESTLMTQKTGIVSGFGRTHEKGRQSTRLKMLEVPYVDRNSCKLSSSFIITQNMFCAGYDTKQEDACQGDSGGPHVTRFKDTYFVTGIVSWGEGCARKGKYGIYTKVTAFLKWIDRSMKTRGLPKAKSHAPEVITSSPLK

Row | Ki | SMILES
1 | 10 µM | COc1ccc(C(=O)NCC2CCN(c3ccc(S(C)(=O)=O)cc3)CC2)cc1OCCc1ccc(Cl)cc1Cl
2 | 10 µM | COc1ccc(C(=O)NCC2CCN(c3ccnc(SC)n3)CC2)cc1OCCc1ccc(Cl)cc1Cl
3 | 10 µM | COc1ccc(C(=O)NCC2CCN(c3cccc(C#N)c3)CC2)cc1OCCc1ccc(Cl)cc1Cl
4 | 10 µM | COc1ccc(C(=O)NCC2CCN(c3cncnc3)CC2)cc1OCCc1ccc(Cl)cc1Cl
5 | 10 µM | COc1ccc(N2CCC(CNC(=O)c3ccc(OC)c(OCCc4ccc(Cl)cc4Cl)c3)CC2)cn1
6 | 10 µM | COc1ccc(C(=O)NCC2CCN(c3cc(C)nc(N)n3)CC2)cc1OCCc1ccc(Cl)cc1Cl
7 | 10 µM | COc1ccc(C(=O)NCC2CCN(c3ccc(Cl)cc3)CC2)cc1OCCc1ccc(Cl)cc1Cl

Second part, the compound before the results:

Row | SMILES | Ki
8 | CC(=O)Nc1ccc(CCOc2cc(C(=O)NCC3CCN(c4ccncc4)CC3)ccc2F)cc1 | 10 µM
9 | COc1ccc(C(=O)Nc2ccc(-c3ccccc3C#N)cc2)cc1OCCc1ccc(Cl)cc1Cl | 10 µM
10 | COc1ccc(C(=O)NC2CCN(C3CCCCC3)CC2)cc1OCCc1ccc(Cl)cc1Cl | 4.03 µM
11 | COc1ccc(C(=O)N2CCN(Cc3ccc(F)cc3)CC2)cc1OCCc1ccc(Cl)cc1Cl | 3.93 µM
12 | COc1ccc(C(=O)NC2CCN(C3CCOCC3)CC2)cc1OCCc1ccc(Cl)cc1Cl | 2.52 µM
13 | CC(=O)Nc1ccc(CCOc2cc(C(=O)NCC3CCN(c4ccncc4)CC3)ccc2Cl)cc1 | 10 µM
14 | CCN(CC)C(=O)[C@H](CCCN=C(N)N)NC(=O)c1ccc(OC)c(OCCc2ccc(Cl)cc2Cl)c1 | 0.153 µM
15 | COc1ccc(C(=O)NC2CCN(c3cc[n+]([O-])cc3)CC2)cc1OCCc1ccc(Cl)cc1Cl | 1.27 µM
16 | COc1ccc(C(=O)NC2CCN(CC(=O)N3CCCC3)CC2)cc1OCCc1ccc(Cl)cc1Cl | 2.57 µM
17 | CC(=O)Oc1cc(C(=O)NCC2CCN(c3ccncc3)CC2)cc(OCCc2ccc(Cl)cc2Cl)c1Br | 0.285 µM
18 | COc1cc(N2CCC(CNC(=O)c3ccc(OC)c(OCCc4ccc(Cl)cc4Cl)c3)CC2)nc(OC)n1 | 10 µM
19 | COc1ccc(C(=O)NCC2CCN(C3CCNCC3)CC2)cc1OCCc1ccc(Cl)cc1Cl | 5.76 µM
20 | O=C(c1cccc(OCCc2ccc(Cl)cc2Cl)c1)N1CCN(Cc2ccncc2)CC1 | 2.82 µM

Biological target: not listed separately
Experiment: Binding affinity towards Thrombin
Design: species or system Homo sapiens

Row | Ki | SMILES
21 | 20.8 µM | COc1ccc(C(=O)NCC2CCN(c3ccnc(C)c3)CC2)cc1OCCc1ccc(Cl)cc1Cl
22 | 1.8 µM | COc1cc(C(=O)NCC2CCN(c3ccncc3)CC2)cc(OCCc2ccc(Cl)cc2Cl)c1Cl
23 | 1.74 µM | COc1cc(C(=O)NCC2CCN(c3ccncc3)CC2)cc(OCCc2ccc(Cl)cc2Cl)c1C
24 | 4.87 µM | Cc1ccc(C(=O)NCC2CCN(c3ccncc3)CC2)cc1OCCc1ccc(Cl)cc1Cl
25 | 6.32 µM | CCOc1ccc(C(=O)NCC2CCN(c3ccncc3)CC2)cc1OCCc1ccc(Cl)cc1Cl

The remaining lines, values behind:

Row | SMILES | Ki
26 | COc1cc(C(=O)NCC2CCN(c3ccncc3)CC2)cc(OCCc2ccc(Cl)cc2)c1Cl | 3.73 µM
27 | COc1cc(C(=O)NCC2CCN(c3ccncc3)CC2)cc(OCCc2ccc(Cl)cc2Cl)c1Br | 2.27 µM
28 | O=C(NCC1CCN(c2ccncc2)CC1)c1ccc(Cl)c(OCCc2ccc(Cl)cn2)c1 | 5.4 µM
29 | O=C(NCC1CCN(c2ccncc2)CC1)c1ccc(Cl)c(OCCc2ccc(Cl)cc2Cl)c1 | 3.06 µM
30 | CCOc1cc(C(=O)NCC2CCN(c3ccncc3)CC2)cc(OCCc2ccc(Cl)cc2Cl)c1Br | 36.9 µM
31 | O=C(NCC1CCN(c2ccncc2)CC1)c1cc(OCCc2ccc(Cl)cc2Cl)c2c(c1)OCO2 | 1.68 µM
32 | NC(=O)c1cc(OCCc2ccc(Cl)cc2Cl)cc(C(=O)NCC2CCN(c3ccncc3)CC2)c1 | 5.08 µM
33 | O=C(NCC1CCN(c2ccncc2)CC1)c1ccc(Cl)c(OCCc2ccc(Br)cc2)c1 | 4.73 µM
34 | COc1cc(C(=O)NCC2CCN(c3ccncc3)CC2)cc(OCCc2ccc(Cl)cc2Cl)c1OC | 4.12 µM
35 | COc1ccc(C(=O)NCC2CCN(c3ccncc3)CC2)cc1OCCc1ccc(Cl)cc1 | 5.27 µM
36 | CNc1ccc(C(=O)NCC2CCN(c3ccncc3)CC2)cc1OCCc1ccc(Cl)cc1Cl | 1.1 µM
37 | O=C(NCC1CCN(c2ccncc2)CC1)c1ccc(F)c(OCCc2ccc(Cl)cc2)c1 | 5.62 µM
38 | O=C(NCC1CCN(c2ccncc2)CC1)c1ccc(Cl)c(OCCc2ccc(Cl)cc2)c1 | 2.76 µM
39 | O=C(NCC1CCN(c2ccncc2)CC1)c1ccc(C(F)(F)F)c(OCCc2ccc(Cl)cc2Cl)c1 | 31.8 µM
